The values that follow come from patent publication US20240279220A1, “INDOLE COMPOUNDS AND METHODS OF USE” (Genzyme Corporation, priority 2021, published 2024).

In the experiment the test system is NBD1/3D. Nature of the experiment: Aggregation analysis using differential static light scattering (DSLS), NBD1 thermal stability. Format: binding, Human. The settings on record: ΔTagg versus DMSO control; compound at 100 μM. In outline: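 Purified NBD1 at 0.2 mg/ml in S200 buffer (pH 7.6, 2 mM ATP, 5 mM MgCl2, 1% glycerol) was heated with compound at 1 °C/min to 70 °C. Tagg taken from the light-scattering curve inflection point; ΔTagg = compound Tagg minus mean DMSO control Tagg.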

Structures are written as SMILES.

For `CC(O)(c1cccc(CCC(=O)O)c1)c1c[nH]c(-c2cc(Oc3c(F)cc4[nH]ccc4c3C3CC3)ccc2F)n1` (stereo not shown) [Example 193, 3-(3-(1-(2-(5-((4-cyclopropyl-6-fluoro-1H-indol-5-yl)oxy)-2-fluorophenyl)-1H-imidazol-4-yl)-1-hydroxyethyl)phenyl) propanoic acid], the “DSLS NBD1/3D Human Stability delta-T (° C.) @ 100 (μM)” value (“DSLS NBD1/3D Human Stability delta-T” below) is listed as “B (B: 5-10° C.)”.
The same measure for `Cc1c(Oc2ccc(F)c(-c3ncc(C(C)(O)c4cccc(CCC(=O)O)c4)[nH]3)c2)cc(F)c2[nH]ccc12` (stereo not shown) [Example 195, 3-(3-(1-(2-(2-fluoro-5-((7-fluoro-4-methyl-1H-indol-5-yl)oxy)phenyl)-1H-imidazol-5-yl)-1-hydroxyethyl)phenyl) propanoic acid]: “B (B: 5-10° C.)”; for `CC(O)(c1cccc(CCC(=O)O)c1)c1cnc(-c2cc(Oc3cc(F)c4[nH]ccc4c3)ccc2F)[nH]1` (stereo not shown) [Example 196, 3-(3-(1-(2-(2-fluoro-5-((7-fluoro-1H-indol-5-yl)oxy)phenyl)-1H-imidazol-5-yl)-1-hydroxyethyl)phenyl) propanoic acid]: “B (B: 5-10° C.)”; for `CC(O)(c1cccc(CCC(=O)O)c1)c1cnc(-c2cc(Oc3cc(F)c4[nH]ccc4c3F)ccc2F)[nH]1` (stereo not shown) [Example 197, 3-(3-(1-(2-(5-((4,7-difluoro-1H-indol-5-yl)oxy)-2-fluorophenyl)-1H-imidazol-5-yl)-1-hydroxyethyl)phenyl) propanoic acid]: “B (B: 5-10° C.)”.
The same measure for `CC(O)(c1cccc(CCC(=O)O)c1)c1c[nH]c(-c2cc(Oc3cc4cc[nH]c4c(F)c3F)ccc2F)n1` (stereo not shown) [Example 198, 3-(3-(1-(2-(5-((6,7-difluoro-1H-indol-5-yl)oxy)-2-fluorophenyl)-1H-imidazol-4-yl)-1-hydroxyethyl)phenyl) propanoic acid]: “A (A: T ≥ 10° C.)”.
For `Cc1c(Oc2ccc(F)c(-c3ncc(C(C)(O)c4cccc(CC(F)C(=O)O)c4)[nH]3)c2)c(F)cc2[nH]ccc12` (stereo not shown) [Example 199, 2-fluoro-3-(3-(1-(2-(2-fluoro-5-((6-fluoro-4-methyl-1H-indol-5-yl)oxy)phenyl)-1H-imidazol-5-yl)-1-hydroxyethyl)phenyl) propanoic acid], the “DSLS NBD1/3D Human Stability delta-T” value is given as “A (A: T ≥ 10° C.)”.
With `CC(O)(c1cccc(CCC(=O)O)c1)c1cnc(-c2cc(Oc3c(F)cc4[nH]ccc4c3CCF)ccc2F)[nH]1` (stereo not shown) [Example 200, 3-(3-(1-(2-(2-fluoro-5-((6-fluoro-4-(2-fluoroethyl)-1H-indol-5-yl)oxy)phenyl)-1H-imidazol-5-yl)-1-hydroxyethyl)phenyl) propanoic acid], the “DSLS NBD1/3D Human Stability delta-T” value is “A (A: T ≥ 10° C.)”.
To `Cc1c(Oc2ccc(F)c(-c3ncc(C(C)(O)c4cccc(CCC(=O)O)c4)[nH]3)c2)c(F)cc2[nH]cc(Cl)c12` (stereo not shown) [Example 201, 3-(3-(1-(2-(5-((3-chloro-6-fluoro-4-methyl-1H-indol-5-yl)oxy)-2-fluorophenyl)-1H-imidazol-5-yl)-1-hydroxyethyl)phenyl) propanoic acid] belongs “B (B: 5-10° C.)”.
The same measure for `CC(O)(c1cccc(CC(F)C(=O)O)c1)c1cnc(-c2cc(Oc3c(F)cc4[nH]ccc4c3F)ccc2F)[nH]1` (stereo not shown) [Example 202, 3-(3-(1-(2-(5-((4,6-difluoro-1H-indol-5-yl)oxy)-2-fluorophenyl)-1H-imidazol-5-yl)-1-hydroxyethyl)phenyl)-2-fluoropropanoic acid]: “A (A: T ≥ 10° C.)”.
The same measure for `CC(O)(c1cccc(CCC(=O)O)c1)c1c[nH]c(-c2cc(Oc3c(F)cc4[nH]ccc4c3S(C)(=N)=O)ccc2F)n1` (stereo not shown) [Example 203, 3-(3-(1-(2-(2-fluoro-5-((6-fluoro-4-(S-methylsulfonimidoyl)-1H-indol-5-yl)oxy)phenyl)-1H-imidazol-4-yl)-1-hydroxyethyl)phenyl) propanoic acid]: “A (A: T ≥ 10° C.)”.
